Laboratory results from patent US20250154088A1, “PRODUCT 1,3-BUTYLENE GLYCOL” (KH Neochem Co., Ltd., priority 2022, published 2025).

Columns and labels:
[1] = system: cysteine-containing peptide for DPRA; assay: Skin sensitization test (direct peptide reactivity assay, DPRA); details: HPLC after 72±2 hours, relative value with result of Comparative Example 1 regarded as 100
Source text: The product 1, 3-butylene glycol in the present embodiment causes less skin sensitization. Here, the skin sensitization refers to the occurrence of an allergic reaction after the product 1, 3-butylene glycol comes into contact with the skin. In the evaluation of skin sensitization, it has been normal to use experimental animals, but the direct peptide reactivity assay (DPRA), which is an in Chemico test, was adopted as an alternative test in OECD guideline TG442C in 2015 from the viewpoint of animal welfare, and, in the present embodiment as well, the skin sensitization is evaluated by a test in which DPRA is used. In more detail, the skin sensitization is evaluated according to a method described in examples to be described below.
The product 1, 3-butylene glycols obtained in Examples 1 to 3 and Comparative Example 1 were evaluated for skin sensitization according to the following method.
15 mg of cysteine-containing peptide for DPRA manufactured by Scrum Inc. and 30 mL of a 0.05 M phosphate buffer were mixed together, thereby preparing a 0.05 M phosphate buffer solution containing 0.667 mM of the peptide (hereinafter, peptide solution). After one hour elapsed from the preparation of the peptide solution, 750 μL of the peptide solution and 250 μL of acetonitrile were put into each of three brown sample bottles for HPLC, thereby preparing three reference solutions. After two hours elapsed from the preparation of the reference solutions, 750 μL of the peptide solution, 200 μL of acetonitrile and 50 μL of 1, 3-butylene glycol were put into a separate brown sample bottle for HPLC, thereby preparing a specimen solution (specimen solution 1). Furthermore, after four hours elapsed and six hours elapsed from the preparation of the reference solutions, specimen solutions were prepared by the same operation (specimen solution 2 and specimen solution 3). Each of the three reference solutions and the specimen solutions (specimen solution 1, specimen solution 2 and specimen solution 3) was measured by an HPLC analysis after 72±2 hours elapsed from the preparation of each solution, and the three-time average value of the peak heights of peptide in each of the reference solutions and the specimen solutions was calculated. A peptide reduction percentage was calculated from the calculated three-time average value using the following formula (3) and regarded as an evaluation result.
In the present test, a specimen solution of the product 1, 3-butylene glycol of Comparative Example 1 that served as a reference and a specimen solution of the product 1, 3-butylene glycol of each of Examples 1 to 3 were each tested on the same day from the viewpoint of reproducibility.
Analysis device: Agilent 1260 InfinityII manufactured by Agilent Technologies, Inc. […]

Basic coloration test = format: physicochemical; details: with water and potassium hydroxide, heat treatment at 90° C. for one hour, cooled to room temperature; spectral colorimeter
Source text: The product 1, 3-butylene glycol in the present embodiment has an advantage of not easily coloring under a basic condition. Coloration under a basic condition can be evaluated by a method described in examples to be described below (basic coloration test). The color saturation (b*) of the CIE color space (JIS Z 8729) when the product 1, 3-butylene glycol of the present embodiment has been evaluated by the method is not particularly limited; however, for example, the average value of three times of measurement is preferably 4.0 or less, more preferably 3.8 or less and particularly preferably 3.5 or less.
The product 1, 3-butylene glycols obtained in Examples 1 to 3 and Comparative Example 1 were evaluated for coloration under a basic condition according to the following method.
13 g of water and 2 g of potassium hydroxide were added to a 100 mL heat-resistant medium bottle and mixed together, and 6 g of the product 1, 3-butylene glycol, which was a subject, was further added thereto. Next, the heat-resistant medium bottle was immersed in a water bath, and a heat treatment was performed at 90° C. for one hour. After the solution that had been subjected to the heat treatment was cooled to room temperature, the color saturation (b*) of the solution was measured with a spectral colorimeter SE2000 manufactured by Nippon Denshoku Industries Co., Ltd. and regarded as a grade.

Row | Structure (SMILES) | Relative value of peptide reduction percentage [1] | Color saturation (b*) (Basic coloration test)
1 | CC(O)CCO (centres unmarked) [Comparative Example 1, 1,3-butylene glycol] | 100 | 19.6
2 | CC(O)CCO (centres unmarked) [Example 3, 1,3-butylene glycol] | 22 | 0.7
3 | CC(O)CCO (centres unmarked) [Example 1, 1,3-butylene glycol] | 45 | 2.8
4 | CC(O)CCO (centres unmarked) [Example 2, 1,3-butylene glycol] | 43 | 3.2
